Laboratory results published in patent US9938335B2, “Glucagon and GLP-1 co-agonist compounds” (Eli Lilly and Company, priority 2015, dated 2018).
Values joined by “and” are separate entries in the source; they are usually repeats but may differ in a detail not shown here. Identical values can stand only once. Like-named read-outs stand apart in the source and are kept apart here.

What was measured:
hGcg-R = hGcg-R (Homo sapiens, UniProt P47871); experiment: Functional activation of hGcg-R in primary human hepatocytes (cAMP); type: cell-based; design: stimulating cAMP production at the endogenous Gcg receptors; endogenous in cells; host or cells: cryopreserved primary human hepatocytes; settings: primary human hepatocytes
Chain of hGcg-R (P47871 26-477): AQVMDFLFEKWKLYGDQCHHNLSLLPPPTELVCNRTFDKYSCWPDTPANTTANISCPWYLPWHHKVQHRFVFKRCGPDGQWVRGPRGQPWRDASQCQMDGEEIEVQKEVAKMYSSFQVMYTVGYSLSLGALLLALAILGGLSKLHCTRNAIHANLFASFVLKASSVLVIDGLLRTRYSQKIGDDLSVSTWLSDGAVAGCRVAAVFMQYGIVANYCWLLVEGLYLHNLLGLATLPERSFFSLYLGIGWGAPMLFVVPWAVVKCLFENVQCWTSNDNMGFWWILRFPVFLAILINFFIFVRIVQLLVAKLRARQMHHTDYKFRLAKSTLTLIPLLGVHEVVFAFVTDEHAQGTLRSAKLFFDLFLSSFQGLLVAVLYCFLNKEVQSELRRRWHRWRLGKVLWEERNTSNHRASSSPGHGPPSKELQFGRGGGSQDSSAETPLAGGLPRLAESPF
Protocol: Primary human hepatocytes are used to determine functional activity of compounds on stimulating cAMP production at the endogenous Gcg receptors. Vials of human primary hepatocytes are frozen in a liquid nitrogen tank. Upon removal, vials are thawed immediately in a water bath having a temperature of 37° C. Cell suspension is then transferred to 50 ml CHRM (Gibco/Life Technologies cat#CM7000 Cryopreserved Hepatocyte Recovery Medium).
The cell suspension is centrifuged at 1,000×g for 10 min. Cell pellets are resuspended in 5 ml of Plating Media after removing the CHRM by aspiration. The Plating Media is prepared by adding entire contents of CM3000 Supplement Packs to 500 ml Williams Media (Gibco/Life Technologies), followed by sterile filtration through a 0.22 μm membrane.
The cell density is counted on hemocytometer, by adding 100 μl of cell suspension to 100 μl Trypan Blue (HyClone Trypan Blue 0.04%, catalog number SV30084.01). The cell suspension is further diluted in the Plating Media to the final cell density of 0.8×10^6 cells per ml. […] 65 ml of the cell suspension is then added to each well of the Collagen coated 96-well plate to final cell density 50,000 cells per well. The cell plate is incubated in a 37° C., 5% CO2 incubator for 3-4 hours.
After 3-4 hours incubation, the media is aspirated and replaced with 100 ml Maintenance Media. The maintenance media is prepared by adding entire contents of CM4000 Supplement Packs to 500 ml Williams Media (Gibco/Life Technologies), followed by sterile filtration through a 0.22 μm membrane. The cell plate is returned to the 37° C., 5% CO2 incubator overnight in preparation for the cAMP assay.
The cell plate is removed from the incubator and the media is removed by gentle aspiration without disturbing the cell monolayer.
cAMP concentration is measured using a HTRF cAMP assay kit (Cisbio): cAMP-d2 conjugate in cell lysis buffer (40 μl) followed by the antibody anti-cAMP-Eu^3+-Cryptate, also in cell lysis buffer (40 μl), is added to the cells of the plate.

DIO mice (C57BL/6) = experiment: Effects on energy expenditure in DIO mice (indirect calorimetry); type: in vivo, mouse; settings: for Cumulative Heat (Kcal/kg lean mass/3 day): test article 15 nmol/kg, semaglutide 60 nmol/kg sc every three days
Protocol: Seven to eight months old male DIO mice (C57BL/6) weighing 45-50 g are used in this study to assess the effect of compounds of the present invention on energy metabolism. Animals are individually housed in a temperature-controlled (24° C.) facility with a 12 hour light/dark cycle (lights on 22:00), and free access to food (TD95217)(Teklad) and water. After 2 weeks acclimation to the facility, mice are randomized to treatment groups (N=6/group) based on body weight so each group has similar starting mean body weight. Animals are placed in a PhenoMaster/LabMaster calorimeter (TSE Systems, Chesterfield, Mo.) for 8 days of acclimation.
Heat and […] (RER) are measured by indirect calorimetry as described using an open-circuit calorimetry system. RER is the ratio of the volume of CO2 produced (VCO2) to the volume of O2 consumed (VO2). Heat is calculated with lean body weight considered. The energy expenditure is kcal/kg/3 day and expressed as mean±SEM of 6 mice per group. Statistical significance is assessed by two-way ANOVA followed by Tukey's multiple comparison test.

[1] = Pharmacokinetics in cynomolgus monkeys; type: in vivo; settings: for Cmax: read-out: C0 or Cmax
Protocol: The compounds are administered by a single intravenous or subcutaneous dose of 50 nmole/kg or 250 nmole/kg.
The plasma concentrations of compounds are determined by a LC/MS method. Briefly, a compound of the present invention is extracted from 100% monkey plasma (25 μl) using acetonitrile. Two distinct layers are formed upon centrifugation with the compound located in the liquid layer. An 80 μl aliquot of the supernatant was transferred to a 96-well plate, diluted with 150 μl of water and 25 μl of formic acid. The diluted sample (10 μl) was injected onto a Supelco Analytical Discovery BIO Wide Pore C5-3, 5 cm×1 mm, 3 um column. The column effluent is directed into a Thermo Q-Exactive mass spectrometer for detection and quantitation.

rat GLP-1-R = target: T1, rat GLP-1-R (Rattus norvegicus, UniProt P32301); experiment: Functional activation of the rat GLP-1-R in insulinoma cell line INS1 832-3 (cAMP); type: cell-based
T1 construct: stimulating cAMP production at the endogenous GLP-1 receptors; endogenous in cells; host or cells: INS1 832-3 rat insulinoma cells
T1 sequence (P32301 22-463): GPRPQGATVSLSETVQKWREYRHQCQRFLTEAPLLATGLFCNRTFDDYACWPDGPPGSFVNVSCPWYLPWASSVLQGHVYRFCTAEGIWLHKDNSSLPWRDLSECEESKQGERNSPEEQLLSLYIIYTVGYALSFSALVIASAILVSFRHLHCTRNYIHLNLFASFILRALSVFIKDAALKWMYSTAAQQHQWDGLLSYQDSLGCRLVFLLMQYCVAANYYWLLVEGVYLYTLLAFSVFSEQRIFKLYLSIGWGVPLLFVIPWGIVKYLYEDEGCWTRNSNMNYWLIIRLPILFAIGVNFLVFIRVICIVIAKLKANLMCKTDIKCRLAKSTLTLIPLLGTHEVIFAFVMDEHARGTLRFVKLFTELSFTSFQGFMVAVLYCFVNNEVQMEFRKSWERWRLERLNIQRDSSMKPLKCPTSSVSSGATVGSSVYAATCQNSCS
Protocol: Performance of the assay requires detachment of the cells from culture flasks using Enzyme Free Cell Stripper and pelleted by centrifugation at 1000 rpm for 5 minutes at room temperature. […] After 2 hours starvation, cells are treated with compound by adding 10 μl of 5× compound dilutions into the cell plates (n=2) and incubated in a 37° C., 5% CO2 incubator for 30 minutes.
cAMP concentration is measured using a HTRF cAMP assay kit (Cisbio): cAMP-d2 conjugate in cell lysis buffer (20 μl) followed by the antibody anti-cAMP-Eu^3+-Cryptate, also in cell lysis buffer (20 μl), is added to the cells of the plate.
The assay is performed with duplicated plates.

Human Gcg-R = target: T2, Human Gcg-R (Homo sapiens, UniProt P47871); experiment: Functional hGcg-R assay (cAMP HTRF, HEK-293 clonal cell line); type: cell-based; settings: cAMP, 60 minute incubation, 0.25% FBS, 0.05% BSA; geometric mean; read-out: Human Gcg-R EC50, nM ± SEM, (n)
T2 construct: expressed in transfected cells; host or cells: HEK-293 clonal cell line over-expressing the receptor
T2 sequence (P47871 26-477): as the sequence (P47871 26-477) above
Protocol: After a 60 minute incubation at room temperature, the resulting increase in intracellular cAMP (adenosine 3′,5′-cyclic monophosphate) is quantitatively determined using the CisBio cAMP Dynamic 2 HTRF Assay Kit (62AM4PEJ). cAMP levels within the cell are detected by adding the cAMP-d2 conjugate in cell lysis buffer (20 μl) followed by the antibody anti-cAMP-Eu^3+-Cryptate, also in cell lysis buffer (20 μl).
A relative EC50 value and percent top (Emax) are derived by non-linear regression analysis using the percent maximal response vs. the concentration of peptide added, fitted to a four-parameter logistic equation (Genedata Screener®).
Means for EC50 are expressed as Geometric means±standard error of the mean (SEM) with the number of replicates (n) indicated in parenthesis. Means for Emax are expressed as the arithmetic mean±standard error. ND signifies that agonist activity was not detected.

[2] = Viscosity (Rheosense mVroc Viscometer); type: physicochemical; settings: approximately 10 mg/mL peptide in 10 mM Tris + 3 mg/mL m-cresol at pH 8.0; 25° C.; shear rate 1934 s^−1
Protocol: Viscosity of compounds of the present invention is measured in a Rheosense mVroc Viscometer with the following settings:
(a) Syringe size: 500 μL syringe
(b) Flow Rate: 100 μL/min flow rate
(c) Average Temperature: 25° C.
(d) Shear Rate: 1934 s^−1
Dry powder (compound) is weighed out, dissolved in water as a cloudy precipitate, and titrated to approximately pH 8.0 with 1N NaOH. The solution is sonicated and swirled by hand until peptide is in solution. Samples are sterile filtered (0.22 μm PVDF filters). Samples are then analyzed by UV-Vis to assess stock solution concentrations. Solutions are diluted to final concentration using 3× m-cresol in 10 mM Tris pH 8.0 buffer to final concentrations of approximately 10 mg/mL peptide by weight in 10 mM Tris+3 mg/mL m-cresol at pH 8.0. Samples were filtered through 0.22 μm filters immediately prior to viscosity analysis. 25 μL of sample are removed to verify concentration by RP-HPLC before and after analysis.
Water and buffer control samples are measured before and after each sample is analyzed. The instrument is washed with buffer (3×) in between analysis of each sample. The samples are loaded into individual syringes and analyzed. The first measurement is not included in the final calculation to allow for equilibration with the system. Samples are then analyzed in triplicate (n=3).
The viscosity of Compounds 1-4 was measured essentially as described in this assay.

[3] = Table 9: single IV 50 nmol/kg, individual animals
[4] = Table 9: single SC 50 nmol/kg, individual animals
[5] = Table 9: single SC 250 nmol/kg, individual animals
[6] = male, cynomolgus monkey, plasma, iv, 50 nmol/kg, Table 9: single IV 50 nmol/kg, mean
[7] = male, cynomolgus monkey, plasma, sc, 50 nmol/kg, Table 9: single SC 50 nmol/kg, individual animals
[8] = male, cynomolgus monkey, plasma, sc, 50 nmol/kg, Table 9: single SC 50 nmol/kg, mean
[9] = male, cynomolgus monkey, plasma, sc, 250 nmol/kg, Table 9: single SC 250 nmol/kg, individual animals
[10] = male, cynomolgus monkey, plasma, sc, 250 nmol/kg, Table 9: single SC 250 nmol/kg, mean

What does the source list for CC(C)C[C@H](NC(=O)[C@H](CC(C)C)NC(=O)[C@H](Cc1c[nH]c2ccccc12)NC(=O)[C@H](CCC(=O)O)NC(=O)[C@@H](NC(=O)[C@H](Cc1ccccc1)NC(=O)[C@H](CCC(=O)O)NC(=O)[C@H](CCCCNC(=O)COCCOCCNC(=O)COCCOCCNC(=O)CC[C@H](NC(=O)CCCCCCCCCCCCCCCCCCC(=O)O)C(=O)O)NC(=O)[C@H](C)NC(=O)[C@H](CCCCN)NC(=O)[C@H](CCCCN)NC(=O)[C@H](CCC(=O)O)NC(=O)[C@H](CC(=O)O)NC(=O)[C@H](CC(C)C)NC(=O)[C@H](Cc1ccc(O)cc1)NC(=O)[C@H](CCCCN)NC(=O)[C@H](CO)NC(=O)[C@H](Cc1ccc(O)cc1)NC(=O)[C@H](CC(=O)O)NC(=O)[C@H](CO)NC(=O)[C@@H](NC(=O)[C@H](Cc1ccccc1)NC(=O)[C@@H](NC(=O)CNC(=O)[C@H](CCC(N)=O)NC(=O)C(C)(C)NC(=O)[C@@H](N)Cc1c[nH]cn1)[C@@H](C)O)[C@@H](C)O)C(C)C)C(=O)N[C@@H](CCC(=O)O)C(=O)NCC(=O)NCC(=O)N1CCC[C@H]1C(=O)N[C@@H](CO)C(=O)N[C@@H](CO)C(=O)NCC(N)=O [Compound 2]?
EC50 (hGcg-R; cAMP, 1 hour): 159 nM; cAMP production (hGcg-R; data not shown): increased cAMP production in a dose-dependent manner; metabolic rate (DIO mice (C57BL/6); DIO mice, chronic treatment): increased their metabolic rate starting from Week 2; Cumulative Heat (Kcal/kg lean mass/3 day) (DIO mice (C57BL/6); Day 1 to Day 4): 1746 ± 96 Kcal/kg lean mass/3 day; Cumulative Heat (Kcal/kg lean mass/3 day) (DIO mice (C57BL/6); Day 4 to Day 7): 1778 ± 132 Kcal/kg lean mass/3 day; Cumulative Heat (Kcal/kg lean mass/3 day) (DIO mice (C57BL/6); Day 7 to Day 10): 2549 ± 129 Kcal/kg lean mass/3 day; Cumulative Heat (Kcal/kg lean mass/3 day) (DIO mice (C57BL/6); Day 10 to Day 13): 2568 ± 147 Kcal/kg lean mass/3 day; AUC(0-inf) [1, 3]: 93.174 µM·h; CL/F [1, 3]: 12.7 mL/day/kg and 13 mL/day/kg; Cmax [1, 3]: 1100 nM; T1/2 ([1]; Table 9: single IV 50 nmol/kg, male cynomolgus monkeys, individual animals): 131 h; CL/F ([1]; Table 9: single IV 50 nmol/kg, mean): 12.7 mL/day/kg; AUC(0-inf) [1, 4]: 82.792 µM·h; CL/F [1, 4]: 14.4 mL/day/kg; T1/2 [1, 4]: 106 h; Cmax [1, 4]: 452 nM; AUC(0-inf) [1, 5]: 540.175 µM·h; CL/F [1, 5]: 11 mL/day/kg; T1/2 [1, 5]: 104 h; Cmax [1, 5]: 3620 nM; AUC(0-inf) ([1]; cynomolgus monkey, plasma, sc, 250 nmol/kg, Table 9: single SC 250 nmol/kg, mean, read-out: AUC0-inf): 485 µM·h; CL/F ([1]; cynomolgus monkey, plasma, sc, 250 nmol/kg, Table 9: single SC 250 nmol/kg, mean, read-out: CL/F (converted)): 12.5 mL/day/kg; AUC(0-inf) ([1]; male, cynomolgus monkey, plasma, iv, 50 nmol/kg, Table 9: single IV 50 nmol/kg, individual animals, read-out: AUC0-inf): 94.8 µM·h; Cmax ([1]; male, cynomolgus monkey, plasma, iv, 50 nmol/kg, Table 9: single IV 50 nmol/kg, individual animals): 1020 nM; half-life ([1]; male, cynomolgus monkey, plasma, iv, 50 nmol/kg, Table 9: single IV 50 nmol/kg, male cynomolgus monkeys, individual animals): 88 h; half-life [1, 6]: 110 h; AUC(0-inf) ([1]; male, cynomolgus monkey, plasma, iv, 50 nmol/kg, Table 9: single IV 50 nmol/kg, mean, read-out: AUC0-inf): 94 µM·h; Cmax [1, 6]: 1060 nM; Tmax [1, 7]: 24 h; half-life [1, 7]: 137 h; AUC(0-inf) ([1]; male, cynomolgus monkey, plasma, sc, 50 nmol/kg, Table 9: single SC 50 nmol/kg, individual animals, read-out: AUC0-inf): 101 µM·h; Cmax [1, 7]: 474 nM; CL/F ([1]; male, cynomolgus monkey, plasma, sc, 50 nmol/kg, Table 9: single SC 50 nmol/kg, individual animals, read-out: CL/F (converted)): 12 mL/day/kg; Tmax [1, 8]: ~24 h; half-life [1, 8]: 122 h; AUC(0-inf) ([1]; male, cynomolgus monkey, plasma, sc, 50 nmol/kg, Table 9: single SC 50 nmol/kg, mean, read-out: AUC0-inf): 91.9 µM·h; Cmax [1, 8]: 463 nM; CL/F ([1]; male, cynomolgus monkey, plasma, sc, 50 nmol/kg, Table 9: single SC 50 nmol/kg, mean, read-out: CL/F (converted)): 13.2 mL/day/kg; Tmax [1, 9]: 12 h; half-life [1, 9]: 115 h; AUC(0-inf) ([1]; male, cynomolgus monkey, plasma, sc, 250 nmol/kg, Table 9: single SC 250 nmol/kg, individual animals, read-out: AUC0-inf): 430 µM·h; Cmax [1, 9]: 3640 nM; CL/F ([1]; male, cynomolgus monkey, plasma, sc, 250 nmol/kg, Table 9: single SC 250 nmol/kg, individual animals, read-out: CL/F (converted)): 13.9 mL/day/kg; Tmax [1, 10]: 12 h; half-life [1, 10]: 110 h; Cmax [1, 10]: 3630 nM; EC50 (rat GLP-1-R; INS1 832-3 cells, cAMP, 30 minutes): 62 nM; cAMP production (rat GLP-1-R; INS1 832-3 cells, data not shown): increased cAMP production in a dose-dependent manner; Emax (rat GLP-1-R; INS1, percent of maximal response with native GLP-1 peptide at 300 nM): 104%; EC50 (Human Gcg-R): 26.5 ± 2.2 nM; 500 μL syringe Viscosity [2]: 1.04 cP or mPa-s
